As usually defined, the IC50 is the concentration that gives 50% inhibition.

The structures appear in SMILES notation.

In this assay the target is T1, CETP (Homo sapiens, UniProt P11597).
T1 construct: enriched CETP fraction, obtained from human plasma by means of hydrophobic chromatography; from tissue; host or cells: human plasma
T1 sequence (P11597 18-493): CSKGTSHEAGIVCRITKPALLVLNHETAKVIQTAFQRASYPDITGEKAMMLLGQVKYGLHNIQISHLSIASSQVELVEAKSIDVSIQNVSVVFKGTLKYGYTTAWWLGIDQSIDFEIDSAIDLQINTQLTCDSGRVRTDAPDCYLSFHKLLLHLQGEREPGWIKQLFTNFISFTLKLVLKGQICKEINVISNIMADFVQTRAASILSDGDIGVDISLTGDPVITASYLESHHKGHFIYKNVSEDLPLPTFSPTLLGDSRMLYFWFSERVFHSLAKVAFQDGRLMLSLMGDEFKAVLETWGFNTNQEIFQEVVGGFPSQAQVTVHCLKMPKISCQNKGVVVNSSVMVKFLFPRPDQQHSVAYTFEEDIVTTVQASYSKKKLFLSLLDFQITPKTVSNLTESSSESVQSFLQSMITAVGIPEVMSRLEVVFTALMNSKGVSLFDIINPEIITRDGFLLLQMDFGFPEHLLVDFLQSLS
Description: CETP fluorescence test. To be noted: CETP from human plasma, transfer of fluorescent cholesterol ester between liposomes, 37° C., 4 hours; read-out: IC50 [nM] Fluor. test. Format: biochemical. How it is done: CETP is obtained in partially purified form from human plasma by differential centrifugation and column chromatography and used for the test. To this end, human plasma is adjusted to a density of 1.21 g per ml using NaBr and centrifuged at 4° C. at 50 000 rpm for 18 h. The bottom fraction (d>1.21 g/ml) is applied to a Sephadex® Phenyl-Sepharose 4B (Pharmacia) column, washed with 0.15 M NaCl/0.001 M tris HCl pH 7.4 and then eluted with distilled water. The CETP-active fractions are pooled, dialysed against 50 mM sodium acetate pH 4.5 and applied to a CM-Sepharose® column (Pharmacia). The mixture is then eluted using a linear gradient (0-1 M NaCl). The pooled CETP fractions are dialysed against 10 mM Tris HCl pH 7.4 and then further purified by chromatography on a Mono Q® column (Pharmacia).
Measurement of the CETP-catalysed transfer of a fluorescent cholesterol ester between liposomes—modified according to the procedure of Bisgaier et al., J. Lipid Res. 34, 1625 (1993):
For the production of the donor liposomes, 1 mg of cholesteryl 4,4-difluoro-5,7-dimethyl-4-bora-3a,4a-diaza-s-indacene-3-dodecanoate (cholesteryl BODIPY® FL C12, Molecular Probes) is dissolved in 600 μl of dioxane with 5.35 mg of triolein and 6.67 mg of phosphatidylcholine with gentle warming in an ultrasonic bath and this solution is added very slowly with ultrasonication to 63 ml of 50 mM tris/HCl, 150 mM NaCl, 2 mM EDTA buffer pH 7.3 at RT.
The suspension is then ultrasonicated under an N2 atmosphere for 30 minutes in the Braukson ultrasonic bath at about 50 watts, the temperature being kept at about 20° C.
The acceptor liposomes are obtained analogously from 86 mg of cholesteryl oleate, 20 mg of triolein and 100 mg of phosphatidylcholine dissolved in 1.2 ml of dioxane and 114 ml of above buffer by ultrasonication at 50 watts (20° C.) for 30 minutes.
For testing, a test mix consisting of 1 part of above buffer, 1 part of donor liposomes and 2 parts of acceptor liposomes is used.
80 μl of test mix are treated with 1-3 μg of enriched CETP fraction, obtained from human plasma by means of hydrophobic chromatography, and 2 μl of the substance to be investigated in DMSO and incubated at 37° C. for 4 hours.
The change in the fluorescence at 485/535 nm is a measure of the CE transfer; the inhibition of the transfer in comparison to the control batch without substance is determined.
As for `COc1c([C@@H](O)CC(C)C)ccc2c1C(=O)OC(C)c1cc(C)cc(OCCC(C)C)c1O2` (mixture of isomers) [Example A-80, [(1S)-1-Hydroxy-3-methylbutyl]-11-(isopentyloxy)-4-methoxy-7,9-dimethyl-5H,7H-dibenzo[b,g][1,5]dioxocin-5-one], the IC50 stood at 5000 nM.
For `COc1c([C@@H](O)CC(C)C)ccc2c1C(=O)OCc1c(C)c(C)c(C)c(OC(=O)C(C)(C)C)c1O2` [Example A-35] the value was 200 nM; for `COc1c([C@@H](O)CC(C)C)ccc2c1C(=O)OCc1cc(C)cc(OS(=O)(=O)C(C)C)c1O2` [Example A-42, 9-[(1S)-1-Hydroxy-3-methylbutyl]-8-methoxy-3-methyl-7-oxo-5H,7H-dibenzo[b,g]-[1,5]-dioxocin-1-yl 2-propanesulphonate], 700 nM; for `COc1c([C@@H](O)CC(C)C)ccc2c1C(=O)OCc1c(Cl)c(C)c(Cl)c(OC(=O)C(C)(C)C)c1O2` [Example A-47], 200 nM.
As for `COc1c(C(O)CC(C)(C)C)ccc2c1C(=O)OCc1cc(C)cc(OCCC(C)C)c1O2` (centres unmarked) [Example A-55, 3-(1-Hydroxy-3,3-dimethylbutyl)-11-(isopentyloxy)-4-methoxy-9-methyl-5H,7H-dibenzo[b,g][1,5]dioxocin-5-one], the figure is 1500 nM.
Take `COc1c(C(O)CC(C)C)ccc2c1C(=O)OCc1cc(C)cc(C#CCC(C)C)c1O2` (centres unmarked) [Example A-63]: the IC50 was determined as 2000 nM.
For `COc1c(C(O)CC(C)C)ccc2c1C(=O)OCc1c(F)c(C)cc(OCCC(C)C)c1O2` (centres unmarked) [Example A-64] the value was 500 nM.
As for `COc1c(C(O)CC(C)C)ccc2c1C(=O)OCc1cc(C)cc(CCC3CCCC3)c1O2` (centres unmarked) [Example A-70, 11-(2-Cyclopentylethan-1-yl)-3-(1-hydroxy-3-methylbutyl)-4-methoxy-9-methyl-5H,7H-dibenzo[b,g][1,5]dioxocin-5-one], the figure is 2000 nM; as for `COc1c([C@@H](O)CC(C)C)ccc2c1C(=O)OCc1c(C#N)c(C)cc(OCCC(C)C)c1O2` [Example A-78, 9-[(1S)-1-Hydroxy-3-methylbutyl]-1-(isopentyloxy)-8-methoxy-3-methyl-7-oxo-5H,7H-dibenzo[b,g][1,5]dioxocin-4-carbonitrile], 3000 nM; as for `COc1c([C@@H](O)CC(C)C)ccc2c1C(=O)OCc1c(Br)c(C)c(Br)c(OCCCC(F)(F)F)c1O2` [Example B-1, 8,10-Dibromo-3-[(1S)-1-hydroxy-3-methylbutyl]-4-methoxy-9-methyl-11-(4,4,4-trifluorobutoxy)-5H,7H-dibenzo[b,g][1,5]dioxocin-5-one], 1000 nM.
As for `COc1c([C@@H](O)CC(C)C)ccc2c1C(=O)OCc1cc(C)cc(OCC3CC4C=CC3C4)c1O2` (stereo partly drawn) [Example B-5, 3-[(1S)-1-Hydroxy-3-methylbutyl]-4-methoxy-9-methyl-11-(bicyclo[2.2.1]hept-5-en-2-ylmethoxy)-5H,7H-dibenzo[b,g][1,5]dioxocin-5-one], the figure is 1500 nM; as for `COc1c([C@@H](O)CC(C)C)ccc2c1C(=O)OCc1cc(C)cc(OC(=O)C3(c4cccc(F)c4)CCCCC3)c1O2` [Example B-8], 1000 nM.
For `COc1c([C@@H](O)CC(C)C)ccc2c1C(=O)OCc1cc(C)cc(OC(=O)C3(C)CC3(F)F)c1O2` (some centres unmarked) [Example B-22], the IC50 came out at 700 nM.
For `COc1c([C@@H](O)CC(C)C)ccc2c1C(=O)OCc1c(Cl)c(C)cc(OC(=O)C(C)(C)CF)c1O2` [Example B-42] the value was 300 nM; for `COc1c([C@@H](O)CC(C)C)ccc2c1C(=O)OCc1c(Cl)c(C)c(Br)c(OC(=O)C3CCC3)c1O2` [Example B-50], 250 nM; for `COc1c([C@@H](O)CC(C)C)ccc2c1C(=O)OCc1c(Cl)c(C)c(Cl)c(OC(=O)N3CC4CCC(C3)O4)c1O2` [Example B-165], 300 nM.
Consider `COc1c([C@@H](O)CC(C)C)ccc2c1C(=O)OCc1cc(C(F)F)cc(OCCC(C)C)c1O2` [Example B-176, 9-(Difluoromethyl)-3-[(1S)-1-hydroxy-3-methylbutyl]-11-(isopentyloxy)-4-methoxy-5H,7H-dibenzo[b,g][1,5]dioxocin-5-one], for which the IC50 turned out to be 5000 nM.
As to `COc1c([C@@H](O)CC(C)C)ccc2c1C(=O)OCc1c(Br)c(C)c(Cl)c(OC(=O)[C@@]3(C)C[C@H]4CC[C@@H]3C4)c1O2` [Example C-21], the IC50 worked out at 70 nM.
As for `COc1c([C@@H](O)CC(C)C)ccc2c1C(=O)OCc1cc(C)c(Cl)c(OC(=O)[C@@]3(C)C[C@H]4CC[C@@H]3C4)c1O2` [Example C-22], the IC50 worked out at 75 nM.
For `COc1c([C@@H](O)CC(C)C)ccc2c1C(=O)OCc1c(Cl)c(C)c(Br)c(OC(=O)C3(C)C4CCC3CC4)c1O2` (some centres unmarked) [Example C-37] the value was 60 nM; for `COc1c([C@@H](O)CC(C)C)ccc2c1C(=O)OCc1c(Cl)c(C)c(C)c(OC(=O)[C@@]3(C)C[C@H]4CC[C@@H]3C4)c1O2` [Example C-47], 50 nM.
As for `COc1c(C(O)CC(C)(C)C)ccc2c1C(=O)OCc1c(Cl)c(C)c(C3CC3)c(OC(=O)C3(C)C4CCC3CC4)c1O2` (centres unmarked) [Example C-62], the figure is 60 nM; as for `CCc1c(C)c(Cl)c2c(c1OC(=O)C1(C)C3CCC1CC3)Oc1ccc([C@@H](O)CC(C)C)c(OC)c1C(=O)OC2` (some centres unmarked) [Example C-65], 50 nM; as for `COCc1c(C)c(Cl)c2c(c1OC(=O)C1(C)C3CCC1CC3)Oc1ccc([C@@H](O)CC(C)C)c(OC)c1C(=O)OC2` (some centres unmarked) [Example C-66], 50 nM.
As for `COc1c([C@@H](O)CC(C)C)ccc2c1C(=O)OCc1c(Cl)c(C)c(Br)c(OC(=O)C3(C)CCCCC3)c1O2` [Example C-67], the figure is 90 nM.
With `COc1c([C@@H](O)CC(C)C)ccc2c1C(=O)OCc1c(C)c(C)c(C)c(OC(=O)C3(C)C4CCC3CC4)c1O2` (some centres unmarked) [Example C-82], the IC50 was 60 nM.
As for `CCc1c(C)cc2c(c1OC(=O)[C@@]1(C)C[C@H]3CC[C@@H]1C3)Oc1ccc([C@@H](O)CC(C)C)c(OC)c1C(=O)OC2` [Example C-91], the IC50 turned out to be 40 nM.
As for `COc1c([C@@H](O)CC(C)C)ccc2c1C(=O)OC(C)c1cc(C)cc(OC(=O)C3(C)C4CCC3CC4)c1O2` (some centres unmarked) [Example C-120], the figure is 100 nM; as for `COc1c(C(O)CC(C)C)ccc2c1C(=O)OCc1c(F)c(C)c(C)c(OC(=O)C3(C)C4CCC3CC4)c1O2` (centres unmarked) [Example C-128], 55 nM.
